# Results published in ChEMBL document CHEMBL5291721, “A preclinical secondary pharmacology resource illuminates target-adverse drug reaction associations of marketed drugs” (Nat Commun, 2023).
# Tests used:
# Histamine H1 receptor = Histamine H1 receptor (Homo sapiens, UniProt P35367)
# Cannabinoid receptor 1 [1] = target: T1, Cannabinoid receptor 1 (Homo sapiens, UniProt P21554); format: functional, cell-based
# [2] = target: T2, Alpha-1A adrenergic receptor (Homo sapiens, UniProt P35348)
# T2 sequence (P35348 whole entry): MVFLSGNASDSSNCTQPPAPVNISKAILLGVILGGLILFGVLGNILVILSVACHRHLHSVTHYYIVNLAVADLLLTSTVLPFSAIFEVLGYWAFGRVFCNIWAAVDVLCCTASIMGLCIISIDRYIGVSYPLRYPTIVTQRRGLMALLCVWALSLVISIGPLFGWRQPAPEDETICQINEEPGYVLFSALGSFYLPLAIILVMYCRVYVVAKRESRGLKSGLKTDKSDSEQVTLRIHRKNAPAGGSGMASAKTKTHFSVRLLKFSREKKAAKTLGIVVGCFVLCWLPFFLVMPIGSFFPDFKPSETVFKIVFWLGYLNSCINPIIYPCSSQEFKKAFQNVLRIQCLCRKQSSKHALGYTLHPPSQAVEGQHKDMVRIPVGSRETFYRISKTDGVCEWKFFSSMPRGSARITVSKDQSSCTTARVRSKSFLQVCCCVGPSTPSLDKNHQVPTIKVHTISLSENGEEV
# [3] = target: T2, Alpha-1A adrenergic receptor; format: functional, cell-based
# [4] = target: T3, Muscarinic acetylcholine receptor M1 (Homo sapiens, UniProt P11229); format: functional
# T3 sequence (P11229 whole entry): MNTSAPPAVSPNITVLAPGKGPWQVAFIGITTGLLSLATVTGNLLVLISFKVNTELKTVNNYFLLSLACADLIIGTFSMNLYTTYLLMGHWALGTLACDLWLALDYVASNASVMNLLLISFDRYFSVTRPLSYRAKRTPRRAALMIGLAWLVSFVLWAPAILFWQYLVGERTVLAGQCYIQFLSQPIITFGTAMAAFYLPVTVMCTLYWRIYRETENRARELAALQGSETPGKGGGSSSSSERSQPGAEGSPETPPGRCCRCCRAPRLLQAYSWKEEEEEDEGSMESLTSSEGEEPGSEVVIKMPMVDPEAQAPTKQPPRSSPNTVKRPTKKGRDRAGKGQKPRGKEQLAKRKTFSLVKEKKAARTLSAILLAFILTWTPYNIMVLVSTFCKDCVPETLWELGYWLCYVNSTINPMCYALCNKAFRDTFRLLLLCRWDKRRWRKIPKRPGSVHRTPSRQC
# Cannabinoid receptor 1 [5] = target: T1, Cannabinoid receptor 1; format: functional, cell-based; remark: listed apart in the source
# [6] = target: T4, Alpha-2B adrenergic receptor (Homo sapiens, UniProt P18089)
# T4 sequence (P18089 whole entry): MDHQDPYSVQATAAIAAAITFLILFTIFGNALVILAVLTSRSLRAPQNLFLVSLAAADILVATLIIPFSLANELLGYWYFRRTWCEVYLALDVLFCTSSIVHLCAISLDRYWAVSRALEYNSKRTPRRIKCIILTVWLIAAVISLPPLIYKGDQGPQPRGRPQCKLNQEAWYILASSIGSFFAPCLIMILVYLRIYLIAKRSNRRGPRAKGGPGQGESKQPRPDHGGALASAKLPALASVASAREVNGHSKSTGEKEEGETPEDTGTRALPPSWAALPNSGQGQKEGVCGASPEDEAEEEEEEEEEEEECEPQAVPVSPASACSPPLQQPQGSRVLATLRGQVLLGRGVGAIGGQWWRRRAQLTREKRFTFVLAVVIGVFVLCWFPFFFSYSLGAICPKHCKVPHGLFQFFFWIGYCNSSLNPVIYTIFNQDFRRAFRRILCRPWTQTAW
# [7] = target: Beta-2 adrenergic receptor (Homo sapiens, UniProt P07550); format: functional, cell-based
# Mu-type opioid receptor = Mu-type opioid receptor (Homo sapiens, UniProt P35372); experiment: biochemical; format: functional
# [8] = target: T5, 5-hydroxytryptamine receptor 1A (Homo sapiens, UniProt P08908); format: functional, cell-based
# T5 sequence (P08908 whole entry): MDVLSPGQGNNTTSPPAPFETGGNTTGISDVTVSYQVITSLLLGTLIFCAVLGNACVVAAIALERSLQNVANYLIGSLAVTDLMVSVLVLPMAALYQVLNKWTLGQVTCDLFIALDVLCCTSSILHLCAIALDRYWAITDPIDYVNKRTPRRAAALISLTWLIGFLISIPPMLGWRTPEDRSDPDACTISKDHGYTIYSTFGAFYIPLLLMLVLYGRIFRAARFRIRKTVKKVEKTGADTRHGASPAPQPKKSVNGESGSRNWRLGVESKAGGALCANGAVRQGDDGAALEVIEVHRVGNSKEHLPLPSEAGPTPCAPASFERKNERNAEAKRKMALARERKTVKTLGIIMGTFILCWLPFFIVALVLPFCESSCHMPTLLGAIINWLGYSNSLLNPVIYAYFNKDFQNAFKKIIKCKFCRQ
# Estrogen receptor = target: T6, Estrogen receptor (Homo sapiens, UniProt P03372)
# T6 sequence (P03372 whole entry): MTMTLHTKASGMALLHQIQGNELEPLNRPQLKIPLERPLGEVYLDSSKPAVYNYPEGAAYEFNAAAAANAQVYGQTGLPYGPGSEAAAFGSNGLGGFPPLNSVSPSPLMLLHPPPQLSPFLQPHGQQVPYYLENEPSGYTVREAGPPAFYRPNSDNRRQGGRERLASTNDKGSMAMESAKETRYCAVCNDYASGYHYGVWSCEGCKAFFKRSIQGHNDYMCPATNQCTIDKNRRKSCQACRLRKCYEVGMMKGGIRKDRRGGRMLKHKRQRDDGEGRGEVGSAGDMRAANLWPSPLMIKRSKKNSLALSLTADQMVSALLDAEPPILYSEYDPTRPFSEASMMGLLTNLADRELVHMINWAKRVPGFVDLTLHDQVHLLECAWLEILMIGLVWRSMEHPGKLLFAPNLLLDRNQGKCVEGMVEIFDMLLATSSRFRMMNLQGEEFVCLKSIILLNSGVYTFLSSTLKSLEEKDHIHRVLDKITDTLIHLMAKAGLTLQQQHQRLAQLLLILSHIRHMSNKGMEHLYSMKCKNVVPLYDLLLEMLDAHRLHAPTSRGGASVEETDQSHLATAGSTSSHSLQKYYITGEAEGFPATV
# Cannabinoid receptor 1 [9] = target: T1, Cannabinoid receptor 1
# Melanocortin receptor 4 = Melanocortin receptor 4 (Homo sapiens, UniProt P32245)
# Note: assay procedure not described here.
# Sequence of Beta-2 adrenergic receptor (P07550 whole entry): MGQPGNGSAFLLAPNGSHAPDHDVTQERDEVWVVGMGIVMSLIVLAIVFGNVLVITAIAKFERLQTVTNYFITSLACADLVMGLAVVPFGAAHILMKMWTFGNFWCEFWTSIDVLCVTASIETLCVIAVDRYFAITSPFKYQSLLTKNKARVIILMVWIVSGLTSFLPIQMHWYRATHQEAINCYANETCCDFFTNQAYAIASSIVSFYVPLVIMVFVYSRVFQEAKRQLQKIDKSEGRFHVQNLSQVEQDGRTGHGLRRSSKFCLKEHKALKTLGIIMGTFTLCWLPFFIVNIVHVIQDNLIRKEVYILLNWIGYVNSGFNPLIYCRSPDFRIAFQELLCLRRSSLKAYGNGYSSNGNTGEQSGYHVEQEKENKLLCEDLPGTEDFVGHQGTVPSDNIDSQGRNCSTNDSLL
# Sequence of Melanocortin receptor 4 (P32245 whole entry): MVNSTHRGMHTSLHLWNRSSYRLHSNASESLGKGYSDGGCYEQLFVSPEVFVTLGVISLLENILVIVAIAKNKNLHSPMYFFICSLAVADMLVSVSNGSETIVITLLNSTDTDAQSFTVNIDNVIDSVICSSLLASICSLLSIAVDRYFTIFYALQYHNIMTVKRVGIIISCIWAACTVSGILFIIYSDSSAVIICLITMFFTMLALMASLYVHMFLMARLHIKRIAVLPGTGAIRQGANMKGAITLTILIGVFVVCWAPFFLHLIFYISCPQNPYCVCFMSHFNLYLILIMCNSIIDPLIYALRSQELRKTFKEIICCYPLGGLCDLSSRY
# Sequence of Histamine H1 receptor (P35367 whole entry): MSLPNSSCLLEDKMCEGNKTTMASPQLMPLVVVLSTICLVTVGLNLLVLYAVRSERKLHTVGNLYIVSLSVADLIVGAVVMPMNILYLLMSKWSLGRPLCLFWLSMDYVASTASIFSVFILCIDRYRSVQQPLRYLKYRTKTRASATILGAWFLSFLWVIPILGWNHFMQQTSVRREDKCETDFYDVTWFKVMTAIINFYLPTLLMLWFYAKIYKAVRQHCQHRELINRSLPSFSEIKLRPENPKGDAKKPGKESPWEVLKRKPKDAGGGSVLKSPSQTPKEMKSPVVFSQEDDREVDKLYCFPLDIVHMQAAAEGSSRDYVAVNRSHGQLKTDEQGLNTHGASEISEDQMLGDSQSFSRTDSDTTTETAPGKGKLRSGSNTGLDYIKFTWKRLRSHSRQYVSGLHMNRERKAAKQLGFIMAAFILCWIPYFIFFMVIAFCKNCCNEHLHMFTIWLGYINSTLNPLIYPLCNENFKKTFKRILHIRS
# T1 sequence (P21554 whole entry): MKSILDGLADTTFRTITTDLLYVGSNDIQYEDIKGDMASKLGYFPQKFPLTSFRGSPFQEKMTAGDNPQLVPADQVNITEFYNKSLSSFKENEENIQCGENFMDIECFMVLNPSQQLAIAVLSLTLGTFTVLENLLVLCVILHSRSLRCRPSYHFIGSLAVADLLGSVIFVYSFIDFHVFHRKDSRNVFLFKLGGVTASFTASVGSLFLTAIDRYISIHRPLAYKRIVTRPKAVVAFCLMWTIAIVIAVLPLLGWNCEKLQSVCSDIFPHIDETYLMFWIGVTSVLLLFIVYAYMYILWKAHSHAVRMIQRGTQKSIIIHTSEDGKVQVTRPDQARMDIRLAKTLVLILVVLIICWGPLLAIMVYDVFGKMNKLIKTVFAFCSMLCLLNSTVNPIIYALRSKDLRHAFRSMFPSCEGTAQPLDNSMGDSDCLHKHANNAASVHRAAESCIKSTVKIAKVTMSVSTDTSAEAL
# Sequence of Mu-type opioid receptor (P35372 whole entry): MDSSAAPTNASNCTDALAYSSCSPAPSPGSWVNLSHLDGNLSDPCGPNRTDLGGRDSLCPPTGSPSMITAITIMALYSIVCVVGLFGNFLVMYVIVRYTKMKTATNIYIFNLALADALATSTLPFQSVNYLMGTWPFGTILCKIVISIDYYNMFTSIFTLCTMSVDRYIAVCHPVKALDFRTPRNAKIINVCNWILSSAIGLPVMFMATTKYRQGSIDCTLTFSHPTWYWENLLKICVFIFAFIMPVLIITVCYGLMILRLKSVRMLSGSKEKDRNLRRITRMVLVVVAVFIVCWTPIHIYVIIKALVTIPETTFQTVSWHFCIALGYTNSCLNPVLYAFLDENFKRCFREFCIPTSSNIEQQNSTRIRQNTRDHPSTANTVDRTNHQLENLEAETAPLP
SMILES,AC50 (Histamine H1 receptor) [µM],AC50 (Cannabinoid receptor 1 [1]) [µM],AC50 [2] [µM],AC50 [3] [µM],AC50 [4] [µM],AC50 (Cannabinoid receptor 1 [5]) [µM],AC50 [6] [µM],AC50 [7] [µM],AC50 (Mu-type opioid receptor) [µM],AC50 [8] [µM],AC50 (Estrogen receptor) [µM],AC50 (Cannabinoid receptor 1 [9]) [µM],AC50 (Melanocortin receptor 4) [µM]
CC(C)N(CCCCOCC(=O)O)c1cnc(-c2ccccc2)c(-c2ccccc2)n1,> 30,> 30,> 30,> 30,> 30,> 30,> 30,> 30,> 30,> 30,> 30,–,–
C[N+]12CCC(CC1)C(OC(=O)C(O)(c1ccccc1)c1ccccc1)C2 (centres undefined),> 30,> 30,–,> 30,0.0031,> 30,> 30,> 30,> 30,–,–,–,–
Cc1cc(=O)n(-c2ccccc2)n1C [ANTIPYRINE],–,> 30,> 10,> 30,–,> 30,–,> 30,–,–,> 30,> 10,> 30
CO/N=C(\C(=O)N[C@@H]1C(=O)N2C(C(=O)O)=C(CSc3nc(=O)c(=O)[nH]n3C)CS[C@H]12)c1csc(N)n1 [CEFTRIAXONE],> 30,> 30,–,> 30,> 30,> 30,> 30,> 30,> 30,> 30,> 30,–,–
COc1cc(N)c(Cl)cc1C(=O)NC1CCN(CCCOc2ccc(F)cc2)CC1OC (centres undefined) [CISAPRIDE],–,> 30,0.593,–,–,> 30,–,> 30,–,> 10,> 30,> 10,> 30
CC(CN(C)C)C(C)(O)Cc1ccc(Cl)cc1 (centres undefined) [CLOBUTINOL],> 10,> 30,> 10,> 30,> 10,> 30,> 10,> 30,–,> 10,> 30,> 10,> 30
CCOC(=O)C(C)(C)Oc1ccc(Cl)cc1 [CLOFIBRATE],–,> 30,> 10,> 30,–,> 30,–,> 30,–,> 10,> 30,> 10,> 30
O=C1Nc2ccc(Cl)cc2C(c2ccccc2Cl)=NC1O (centres undefined) [LORAZEPAM],–,> 30,> 10,> 30,–,> 30,–,> 30,–,> 10,> 30,> 10,> 30
CN1CCN=C(c2ccccc2)c2cc(Cl)ccc21 [MEDAZEPAM],> 30,> 30,–,19,> 30,> 30,> 30,> 30,> 30,> 30,–,–,–
